From patent publication US20040102622A1, “Modulation of hepatocyte growth factor receptor expression” (Isis Pharmaceuticals Inc., priority 2002, published 2004)
Strand notation (5' to 3'): a small letter for the sugar, then the base; units joined by * are phosphorothioate-linked, units joined directly phosphodiester-linked; [ ] holds rarer units or linkages, { } end groups; capitals alone tell only the bases. e = 2'-O-(2-methoxyethyl) (MOE); [5mC] = 5-methylcytosine; d = 2'-deoxy (DNA)

These substances were tested on human hepatocyte growth factor receptor mRNA (assay: Inhibition of human hepatocyte growth factor receptor mRNA levels in T-24 cells, quantitative real-time PCR). Conditions: averages from three experiments.
Also: test concentration or dose not given here.

| Substance | % INHIB (inhibition of human hepatocyte growth factor receptor mRNA levels) [%] |
| --- | --- |
| 155112 (antisense eT*eA*eG*eG*eA*dG*dT*d[5mC]*dT*dT*d[5mC]*dT*d[5mC]*d[5mC]*d[5mC]*eT*eT*eG*e[5mC]*eA) [compound 155112] | 81 |
| 209525 (antisense e[5mC]*eT*eG*eG*eT*d[5mC]*d[5mC]*dG*dT*d[5mC]*dA*dA*dA*dA*dA*e[5mC]*eA*eT*eA*eA) [compound 209525] | 89 |
| 209530 (antisense eT*eT*eA*e[5mC]*eA*dG*dG*dA*dT*d[5mC]*d[5mC]*dA*d[5mC]*dA*dT*eA*eG*eG*eA*eG) [compound 209530] | 81 |
| 155119 (antisense eA*eA*eG*eT*eA*dT*dA*dT*dT*dA*dA*dA*d[5mC]*dA*d[5mC]*eT*eT*e[5mC]*e[5mC]*eT) [compound 155119] | 92 |
| 155115 (antisense eA*eG*eT*eT*e[5mC]*d[5mC]*dT*dT*d[5mC]*d[5mC]*dT*dG*d[5mC]*dT*dT*e[5mC]*eA*eT*eG*e[5mC]) [compound 155115] | 89 |
| 209522 (antisense eA*eG*eA*eG*eG*dT*dT*dT*dA*dT*d[5mC]*dT*dT*dT*d[5mC]*eG*eG*eT*eG*e[5mC]) [compound 209522] | 73 |
| 155131 (antisense e[5mC]*eA*eA*eT*eT*dT*dG*dG*d[5mC]*dA*dA*dG*dG*dA*dG*e[5mC]*eA*eA*eA*eG) [compound 155131] | 0 |
| 155133 (antisense eA*eA*eA*e[5mC]*e[5mC]*dA*dT*dT*dT*d[5mC]*dT*dG*dT*dA*dG*eT*eT*eG*eG*eG) [compound 155133] | 68 |
| 209546 (antisense eA*eA*eT*eT*e[5mC]*dA*dA*dG*dT*dT*dT*dT*dG*dG*dA*e[5mC]*eT*e[5mC]*e[5mC]*eA) [compound 209546] | 76 |
| 155107 (antisense eT*e[5mC]*e[5mC]*eG*e[5mC]*dG*dG*dT*dG*dA*dA*dG*dT*dT*dG*eG*eG*eA*eA*eG) [compound 155107] | 42 |
| 155101 (antisense eT*eT*e[5mC]*eA*eG*d[5mC]*d[5mC]*dA*d[5mC]*dA*dG*dG*dA*dA*dA*eA*eA*e[5mC]*e[5mC]*e[5mC]) [compound 155101] | 40 |
| 209539 (antisense eG*e[5mC]*eT*eT*e[5mC]*d[5mC]*d[5mC]*d[5mC]*dA*dT*dT*dG*d[5mC]*dT*dG*eT*eT*eA*eG*eG) [compound 209539] | 57 |
| 209547 (antisense eT*e[5mC]*e[5mC]*eT*eG*d[5mC]*dT*dT*d[5mC]*dA*dA*dT*dT*dT*d[5mC]*e[5mC]*e[5mC]*eA*eT*eA) [compound 209547] | 84 |
| 209544 (antisense eT*eA*eA*eT*eA*dG*dT*dG*d[5mC]*dA*dA*dT*dT*dT*dT*eG*eG*e[5mC]*eA*eA) [compound 209544] | 82 |
| 155130 (antisense eT*e[5mC]*eT*e[5mC]*eT*dG*dA*dA*d[5mC]*dT*d[5mC]*dA*dG*dG*dT*eA*eA*eA*eA*e[5mC]) [compound 155130] | 83 |
| 209535 (antisense eA*eT*eA*eA*e[5mC]*dA*dA*dT*dA*d[5mC]*dA*dA*dG*dT*d[5mC]*e[5mC]*eT*eA*eT*eG) [compound 209535] | 39 |
| 155104 (antisense eA*eT*eG*e[5mC]*eA*dA*dT*dG*dG*dA*dT*dG*dA*dT*d[5mC]*eT*eG*eG*eG*eA) [compound 155104] | 84 |
| 209548 (antisense eT*e[5mC]*eA*eA*eG*dA*dA*dG*d[5mC]*d[5mC]*d[5mC]*dT*d[5mC]*dA*dA*eT*eA*eT*eT*eT) [compound 209548] | 67 |
| 155098 (antisense eT*e[5mC]*eA*eG*eA*dA*dG*dT*dG*dT*d[5mC]*d[5mC]*dT*dA*dT*eT*eA*eA*eA*eG) [compound 155098] | 48 |
| 155129 (antisense eG*eA*eT*eT*eG*dG*dG*dT*d[5mC]*d[5mC]*dG*dT*dA*dA*dA*eA*eA*eT*eG*e[5mC]) [compound 155129] | 59 |
| 209554 (antisense eA*eG*eA*eG*eG*dG*dA*dA*dA*dT*d[5mC]*dG*dG*d[5mC]*d[5mC]*e[5mC]*e[5mC]*e[5mC]*eG*e[5mC]) [compound 209554] | 0 |
| 155126 (antisense e[5mC]*eT*eG*eT*eG*d[5mC]*dA*dT*dT*dT*d[5mC]*dA*dA*dT*dG*eT*eA*eT*eT*e[5mC]) [compound 155126] | 68 |

| Substance | % INHIB (inhibition of human hepatocyte growth factor receptor mRNA levels) [%] |
| --- | --- |
| 155124 (antisense eT*eA*eT*eG*eA*dT*dG*dT*d[5mC]*dT*d[5mC]*d[5mC]*d[5mC]*dA*dG*eA*eA*eG*eG*eA) [compound 155124] | 53 |
| 155102 (antisense eG*eA*eG*eA*eG*dG*d[5mC]*dA*dT*dT*dG*dA*d[5mC]*dT*dG*e[5mC]*eA*eG*eG*eA) [compound 155102] | 35 |
| 209545 (antisense eA*eA*eT*eA*e[5mC]*dA*dA*dG*dT*d[5mC]*d[5mC]*dT*dA*dT*dA*eA*eT*eA*eG*eT) [compound 209545] | 10 |
| 155128 (antisense eA*e[5mC]*eT*eG*eT*dG*dA*dA*dT*dT*dT*dT*dT*d[5mC]*dA*eT*e[5mC]*e[5mC]*eA*eG) [compound 155128] | 83 |
| 155111 (antisense eG*eT*eT*e[5mC]*eG*dG*d[5mC]*dA*dG*dA*dA*dT*d[5mC]*dT*dG*eG*e[5mC]*eT*eT*eG) [compound 155111] | 86 |
| 209553 (antisense e[5mC]*eG*e[5mC]*e[5mC]*e[5mC]*dA*d[5mC]*dG*dA*d[5mC]*dA*dA*dG*dG*dT*eG*eA*eA*eA*e[5mC]) [compound 209553] | 0 |
| 155110 (antisense eT*e[5mC]*eG*eG*eG*dA*d[5mC]*dA*d[5mC]*dT*dA*dA*d[5mC]*dT*dG*eA*eA*eT*eT*e[5mC]) [compound 155110] | 79 |
| 209542 (antisense e[5mC]*eT*eT*eG*e[5mC]*dT*dT*d[5mC]*d[5mC]*dA*d[5mC]*dT*dA*dA*dA*eA*eA*eT*eG*eA) [compound 209542] | 74 |
| 155108 (antisense eA*eT*eT*e[5mC]*eT*d[5mC]*dG*dG*dG*dA*d[5mC]*dA*d[5mC]*dT*dA*eA*e[5mC]*eT*eG*eA) [compound 155108] | 79 |
| 209538 (antisense eT*eG*eT*eG*eA*d[5mC]*dT*dT*dA*d[5mC]*d[5mC]*d[5mC]*dT*dA*dT*eT*eA*eA*eA*eG) [compound 209538] | 28 |
| 209550 (antisense eT*eG*e[5mC]*eG*e[5mC]*dG*d[5mC]*dT*dG*dT*dA*dG*dT*d[5mC]*d[5mC]*e[5mC]*eA*eG*e[5mC]*eT) [compound 209550] | 84 |
| 155125 (antisense eG*eG*eA*eA*eA*d[5mC]*dT*dG*dA*dT*d[5mC]*dT*dT*d[5mC]*dT*eG*eG*eA*eA*eA) [compound 155125] | 52 |
| 209524 (antisense e[5mC]*eT*e[5mC]*eA*eT*dG*dT*dA*dG*dA*dA*dT*dG*dA*d[5mC]*eA*eT*eT*e[5mC]*eT) [compound 209524] | 95 |
| 155099 (antisense e[5mC]*eA*eG*eG*eT*dT*dT*dT*dT*d[5mC]*d[5mC]*d[5mC]*dA*dA*d[5mC]*eA*e[5mC]*e[5mC]*eT*eG) [compound 155099] | 77 |
| 209521 (antisense eG*eG*eA*eA*e[5mC]*d[5mC]*dA*dG*dT*dG*dG*dA*dG*dA*dA*eG*eT*e[5mC]*eA*eG) [compound 209521] | 58 |
| 155105 (antisense eA*eT*e[5mC]*eA*eA*dA*dG*dT*dA*dT*dT*dT*dG*dG*dA*eA*eA*eG*eG*eA) [compound 155105] | 64 |
| 155127 (antisense eG*eA*eT*e[5mC]*eT*dG*dG*dT*dT*dG*dA*dA*d[5mC]*dT*dA*eT*eT*eA*e[5mC]*eT) [compound 155127] | 84 |
| 155120 (antisense eG*eT*eG*eT*e[5mC]*d[5mC]*dT*dA*dT*dT*dA*dA*dA*dG*d[5mC]*eA*eG*eT*eG*e[5mC]) [compound 155120] | 90 |
| 155121 (antisense eT*eG*eA*eA*eA*dG*dG*dA*d[5mC]*dT*dT*dT*dG*dG*d[5mC]*eT*e[5mC]*e[5mC]*e[5mC]*eA) [compound 155121] | 79 |
| 209536 (antisense e[5mC]*e[5mC]*eT*e[5mC]*e[5mC]*d[5mC]*dA*dT*dA*d[5mC]*dT*dA*dG*dA*dG*eA*eA*eG*eT*eA) [compound 209536] | 36 |
| 209529 (antisense e[5mC]*e[5mC]*e[5mC]*eA*eG*d[5mC]*d[5mC]*dA*d[5mC]*dA*dT*dA*dT*dG*dG*eT*e[5mC]*eA*eG*e[5mC]) [compound 209529] | 87 |
| 209555 (antisense eG*e[5mC]*eG*e[5mC]*eG*d[5mC]*dT*dG*d[5mC]*d[5mC]*d[5mC]*dT*dG*d[5mC]*d[5mC]*eA*eG*eT*eG*eA) [compound 209555] | 0 |
